Columns and labels:
Type in all cases: in vivo
human tau mice [1] = assay: Object recognition test, human tau mice
From the text: The human tau mouse is a model of sporadic dementia that expresses human non-mutant tau (6 isoforms) in the absence of endogenous mouse tau. The model develops age-associated pathology, with hyperphosphorylated tau detected in cell bodies and dendrites by 3 months of age (Andorfer et al., 2003; J Neurochem 86, 582-590, doi:10.1046/j.1471-4159.2003.01879.x). These mice display abnormal spatial learning by 6 months of age and impaired learning in the Morris water maze with memory loss by 12 months of age, as well as memory deficits in the Barnes maze by 6 months of age (Marquez et al, 2021).
(§1) Female and male human tau mice (Jax #005491) were treated daily for 25 weeks with PTG-630 trihydrochloride at 1 and 5 mg/kg in drinking water starting at 10 weeks of age (before cognitive deficits appear).
Learning and memory were assessed using the Barnes maze test and the object recognition test at 6-8, 12-13, 18-19 and 24-25 weeks. Corneal nerves were imaged by corneal confocal microscopy (CCM) at week 6, 9, 12, 18 and 25. Data represent male and female results combined, mean±sem.

Drebrin = assay: Western blot of hippocampus, human tau mice: Drebrin; conditions: 12 weeks of treatment in drinking water
From the text: (§2) Mouse Hippocampus were processed for Western blotting analysis of (A) Drebrin (actin binding protein in dendritic spines, role in neuronal growth, a decrease=contributing factor in the pathogenesis of memory disturbance), (B) PSD95 (a post-synaptic protein, role in the regulation of excitatory synapse maturity), and (C) NeuN (neuronal nuclear antigen, biomarker for neurons, decrease=neuronal loss) (FIG. 3).

PSD95 = assay: Western blot of hippocampus, human tau mice: PSD95; conditions: 1 and 5 mg/kg, tendency
Experimental: as §1, §2

NeuN = assay: Western blot of hippocampus, human tau mice: NeuN; conditions: 5 mg/kg
Experimental: as §1, §2

human tau mice [2] = assay: Thermal response to heat (hypoalgesia), human tau mice
Experimental: as §1
Tactile and thermal responses, measures of associated damage to the peripheral nervous system (PNS), were assessed at 8, 14, 18 and 24 weeks. hTau mice developed significant tactile allodynia measured with manual von Frey filaments at the 14 weeks time point (FIG. 4).
Human tau mice develop significant hypoalgesia (FIG. 5).

htau mice = assay: Intraepidermal nerve fiber (IENF) quantification in footskin, htau mice
From the text: A standard measure of associated PNS damage to neuronal tissue and its amelioration is IENF, seen alongside changes in the CNS. […] The amelioration of these PNS effects confirms that PTG-630 readily enters and targets neuronal tissue, whether in the brain or elsewhere in the body.

4-hydroxynonal (4-HNE) = assay: Lipid peroxidation, 4-HNE Oxiselect ELISA in hippocampus homogenates, htau mice
Experimental: as §1
Lipid peroxidation was assessed using the 4-hydroxynonal (4-HNE) Oxiselect ELISA in hippocampus homogenates. […] It is believed that damage to neuronal tissue occurs to a significant extent via induction of oxidative stress that leads to lipoxidation, so that amelioration by PTG-630 reflects their efficacy via anti-oxidant mechanisms.

SMILES: Cc1ncc(CN2CCOCC2)c(-c2ncc[nH]2)c1O [PTG-630, 4-(1H-imidazol-2-yl)-2-methyl-5-(morpholinomethyl)pyridin-3-ol]
- short term episodic memory deficits in Object recognition test (human tau mice [1]; 1 mg/kg in drinking water): partially ameliorated
- short term episodic memory deficits in Object recognition test (human tau mice [1]; 5 mg/kg in drinking water for 17 weeks): significantly alleviated
- short-term episodic memory (recognition index) (human tau mice [1]; FIG. 2 legend, dose not stated): partially prevented
- reduced drebrin levels in hippocampus (Drebrin): significantly (p<0.05) ameliorated
- levels of PSD95 protein in hippocampus (PSD95): dose-dependly ameliorate
- neuronal loss (NeuN) in hippocampus (NeuN): partially alleviated
- thermal hypoalgesia (human tau mice [2]; 1 mg/kg, remained for the rest of the study): significant by 14 weeks of treatment
- thermal hypoalgesia (human tau mice [2]; 5 mg/kg, by 8 weeks of treatment and for the duration of the study): significantly ameliorated
- thermal responses to heat (human tau mice [2]; FIG. 5 legend, after 24 weeks of treatment): amelioration of hypoalgesia
- IENF in footskin (htau mice; female mice): No difference was noted
- decreased IENF in footskin (htau mice; male mice, 1 mg/kg): significantly (p<0.05) ameliorated
- 4-HNE levels in hippocampus (4-hydroxynonal (4-HNE); 1 mg/kg): significantly (p<0.01) reduced HINE levels to control levels
- 4-HNE levels in hippocampus (4-hydroxynonal (4-HNE); 5 mg/kg): significantly (p<0.01) reduced HINE levels to control levels

From patent US20250090541A1, “Methods for Treating Neurodegenerative Disorders” (Praetego Inc, priority 2022, published 2025)
